Data: patent publication US11998610B2, “Conjugates and methods of using the same” (Flagship Pioneering Innovations V, Inc., priority 2018, dated 2024)
Non-standard residues stand in square brackets, D forms with d. Residues, ends and D or L forms follow the SMILES beside them. *: point of attachment. Octanoyl = CCCCCCCC(=O)*

What was measured:
E. coli BL21(DE3) = test: Cell-based assay with ClbP with LCMS, ClbP negative strain; settings: 10 μM compound, 37° C., 20 h
Experimental: (§1) This example is representative of the methods described in Example 97. ClbP was tested for its ability to activate compounds. […] Each of these three strains was struck out onto an appropriate solid media such as LB agar or BHI agar. The bacteria were then grown aerobically overnight at 37° C.
(§2) A single colony was isolated from the plate and inoculated into 10 mL LB. The liquid cultures were grown overnight aerobically at 37° C. with rocking on a nutator.
(§3) The saturated E. coli cultures were transferred into a biosafety cabinet. 5 μL of each culture was inoculated into fresh LB broth (200 μL total, 1:40 (v/v) dilution of the overnight culture), and the tested compound was added to a final concentration of 10 μM. To establish the native stability of the compound in media alone, the compound was also added to uninoculated media at a final concentration of 10 μM. Each compound was tested in duplicate with each strain or the media-alone incubation. The plate was sealed and incubated aerobically on a nutator at 37° C. for 20 h.
(§4) After 20 h, the reactions were stopped by addition of 200 μL acetonitrile. The contents of each well were mixed, and then the plate was centrifuged (4,000 rpm, 10 min). The plate was diluted serially to a final dilution of 1:100 first with Acetonitrile (10× dilution) and then with (4:1) Mobile Phase A-20 mM ammonium formate+water:Mobile Phase B-Isopropanol:Methanol:Water (4:4:2)+20 mM ammonium formate (10× dilution).
(§5) The amount of each remaining parent compound in each incubation was quantified by LC-MS analysis, with multiple-reaction monitoring targeting transitions specific to each parent compound.
(§6) The amount of compound present in the media-alone condition was normalized to 100%. The amount of parent compound present in the reaction with the ClbP-encoding E. coli (E. coli CFT073 ATCC 700928 and/or E. coli Nissle 1917) was compared to the amount present in the media-alone and expressed as a percent. Likewise, the amount of parent compound present in the reaction with the negative control E. coli BL21(DE3) was compared to the amount present in the media-alone and expressed as a percent.
(§7) In an ideal case, the amount of residual starting material in the reaction(s) with ClbP-encoding E. coli was <25% of the amount in the E. coli BL21(DE3) and media-alone conditions. In an acceptable case, the amount of residual starting material in the reaction(s) with ClbP-encoding E. coli was 25-75% of the amount in the E. coli BL21(DE3) and media-alone conditions. In a non-preferred case, the amount of residual starting material in the reaction(s) with ClbP-encoding E. coli was >75% of the amount in the E. coli BL21(DE3) and media-alone conditions.

[1] = system: E. coli CFT073 ATCC 700928 and/or E. coli Nissle 1917; test: Cell-based assay with ClbP with LCMS, ClbP positive strain; settings: for % Remaining in ClbP Positve Relative to Media-Only: ClbP-encoding E. coli, 10 μM compound, 37° C., 20 h; for Difference between the ClbP Positive and ClbP Negative release profiles: conclusion from Table 4
Experimental: as §1, §2, §3, §4, §5, §6, §7

Row | SMILES | % Remaining in ClbP Negative Relative to Media-Only (E. coli BL21(DE3)) | % Remaining in ClbP Positve Relative to Media-Only [1] | Difference between the ClbP Positive and ClbP Negative release profiles [1]
1 | CCCCCCCC(=O)N[C@H](CC(N)=O)C(=O)NCCNC(=O)OC [Example 46, Methyl (R)-(2-(4-amino-2-octanamido-4-oxobutanamido)ethyl)carbamate] | − (>75% compound remaining in the 20 μM WT ClbP reaction relative to the no-enzyme control) | ++ (<25% compound remaining in the 20 μM WT ClbP reaction relative to the control) | particularly favorable difference
2 | CCCCCCCC(=O)N[C@H](CC(N)=O)C(=O)Nc1ccc(COC)cc1 [Example 44, (R)—N1-(4-(methoxymethyl)phenyl)-2-octanamidosuccinamide] | − (>75% compound remaining in the 20 μM WT ClbP reaction relative to the no-enzyme control) | − (>75% compound remaining in the 20 μM WT ClbP reaction relative to the no-enzyme control) | 
3 | CCCCCCCCCCCCCC(=O)N[C@H](CC(N)=O)C(=O)N[C@@H](C)CNC(=O)OC [Example 23, Methyl ((S)-2-((R)-4-amino-4-oxo-2-tetradecanamidobutanamido)propyl)carbamate] | − (>75% compound remaining in the 20 μM WT ClbP reaction relative to the no-enzyme control) | + (between 25-75% compound remaining in the 20 μM WT ClbP reaction relative to the no-enzyme control) | 
4 | CCCCCCNC(=O)N[C@H](CC(N)=O)C(=O)N[C@@H](C)C(=O)OC [Example 53, Methyl (hexylcarbamoyl)-D-asparaginyl-L-alaninate] | − (>75% compound remaining in the 20 μM WT ClbP reaction relative to the no-enzyme control) | ++ (<25% compound remaining in the 20 μM WT ClbP reaction relative to the control) | particularly favorable difference
5 | CCCCCCCC(=O)N[C@H](Cc1c[nH]cn1)C(=O)N[C@@H](C)C(=O)OC [Example 54, Methyl octanoyl-D-histidyl-L-alaninate] (Octanoyl-[dH]-Ala-OMe) | + (between 25-75% compound remaining in the 20 μM WT ClbP reaction relative to the no-enzyme control) | + (between 25-75% compound remaining in the 20 μM WT ClbP reaction relative to the no-enzyme control) | 
6 | CCCCCCCC(=O)N[C@H](CC(N)=O)C(=O)N[C@@H](C)CNC(=O)Oc1ccc(Br)cc1 [Example 48, 4-bromophenyl ((S)-2-((R)-4-amino-2-octanamido-4-oxobutanamido)propyl)carbamate] | + (between 25-75% compound remaining in the 20 μM WT ClbP reaction relative to the no-enzyme control) | + (between 25-75% compound remaining in the 20 μM WT ClbP reaction relative to the no-enzyme control) | 
7 | CCCCCCCC(=O)N[C@H](CC(N)=O)C(=O)NCCC(C)(C)C(=O)Oc1ccc2nc3c(c(CC)c2c1)Cn1c-3cc2c(c1=O)COC(=O)[C@]2(O)CC [Example 40, (S)-4,11-diethyl-4-hydroxy-3,14-dioxo-3,4,12,14-tetrahydro-1H-pyrano[3′,4′:6,7]indolizino[1,2-b]quinolin-9-yl 4-((R)-4-amino-2-octanamido-4-oxobutanamido)-2,2-dimethylbutanoate] | − (>75% compound remaining in the 20 μM WT ClbP reaction relative to the no-enzyme control) | + (between 25-75% compound remaining in the 20 μM WT ClbP reaction relative to the no-enzyme control) | 
8 | CCCCCCCCCCCCCC(=O)N[C@H](CC(N)=O)C(=O)NCCN(C)C(=O)Oc1ccc(Br)cc1 [Example 31, 4-bromophenyl (R)-(2-(4-amino-4-oxo-2-tetradecanamidobutanamido)ethyl)(methyl)carbamate] | − (>75% compound remaining in the 20 μM WT ClbP reaction relative to the no-enzyme control) | − (>75% compound remaining in the 20 μM WT ClbP reaction relative to the no-enzyme control) | 
